Reference: US9695129B2, “Parasiticidal compositions comprising benzimidazole derivatives, methods and uses thereof” (MERIAL INC., priority 2012, dated 2017)
Read-outs that look alike come from different tables or passages of the source.

Columns and labels:
Parameters in all cases: species or system Fasciola hepatica
[1] = system: F. hepatica resistant to triclabendazole (Oberon isolate of Australia); test: In vitro test against triclabendazole-resistant F. hepatica (Oberon isolate), movement score; conditions: for Fluke activity score: scale 3 (very active) to 0 (death)
adult F. hepatica [2] = test: In vitro test on adult F. hepatica (viability scale, effective concentration); conditions: Fasciola hepatica, read-out: Effective in vitro concentration
Method: Representative compounds of formula (I), formula (II), and formula (III) were tested in vitro against F. hepatica as follows. Adult F. hepatica (fluke) were collected from infected bovine livers obtained from a local abattoir (Basel, Switzerland). The worms were quickly washed with 0.9% (w/v) NaCl and placed in 6 or 12-well plates (Costar). Culture medium in each well contained RPMI 1640 (Gibco) at 37° C., which was supplemented with antibiotics (50 μg/ml streptomycin and 50 IU/ml penicillin; Gibco) and 80 μg/ml of a haemin solution. The haemin solution was prepared as follows: 5 mg haemin was dissolved in 1 ml of 0.1M aqueous solution of NaOH, and 3.95 ml of PBS (pH=7.4) and 0.05 ml of 1M HCl were added to adjust the pH to 7.1-7.4 (Keiser and Morson, 2008). Cultures were kept at 37° C. in an atmosphere of 5% CO2. To monitor the temporal effects of test compounds in vitro, 3 flukes were incubated for 72 h in the presence of 50 or 100 μg/ml of each test compound. At 24, 48, and 72 h, worms were examined using a dissecting microscope. For the adult worms, a viability scale ranging from 4 (normal movements) to 1 (death; no movement observed for two min using a microscope) was used.
(§1) Table 1 lists representative compounds of formula (I) of the present invention and their effective in vitro concentrations against F. hepatica. All compounds were tested in vitro on the adult stage of F. hepatica as described above. Each data point refers to at least two independent experiments. For Table 1, R2 is H, R4 is Cl and R5 is H.
as §1, with “2” for “1”, “(II)” for “(I)”, “2 compounds, the 2-position of the benzimidazole ring” for “1, R2”, “methylthio, R6” for “H, R4”, “H” for “Cl”, “R9” for “R5”
as §1, with “3” for “1”, “(III)” for “(I)”, “3, the 2-position of the benzimidazole ring” for “1, R2”, “trifluoromethylthio, R10” for “H, R4”, “H” for “Cl”, “R13” for “R5”

adult F. hepatica [3] = test: In vivo test in female Wistar rats harboring adult F. hepatica; conditions: single oral dose 100 mg/kg, one week after dosing; for Number of living worms Ø = average: control 6.3; for Worm burden reduction %: vs untreated control
Method: Additionally, five compounds were tested in vivo in female Wistar rats against an untreated control. Rats were kept in groups of five in type-4 Makrolon cages under environmentally controlled conditions (temperature, 22° C.; humidity, 70%; light/dark cycle, 12/12 h) with free access to water and rodent food. F. hepatica metacercariae (Pacific Northwest wild strain) were purchased from Baldwin Aquatics (Monmouth, Oreg.). After one week of adaptation, each rat was infected by oral gavage with approximately 25 metacercariae.
Three rats harboring adult F. hepatica (>8 weeks postinfection) were used to test each of five compounds. The rats were given a single oral dose of 100 mg/kg with each of test compounds 273, 274, 282, 290 and 303. Untreated rats (n=3) served as controls. Dosing formulations consisted of 300 ul Tween 80:ethanol (1:1) and 2.7 ml water. One week after dosing the animals were euthanized and live worms recovered from excised bile ducts.

[4] = Table 1, formula (I), adult flukes incubated up to 72 h, at least two independent experiments

## FC(F)(F)c1nc2cc(Cl)c(-c3ccc(Cl)cc3)cc2[nH]1 [Compound 130, 6-chloro-5-(4-chlorophenyl)-2-trifluoromethylbenzimidazole]
[1]; 20 μg/ml, 0 h
  Fluke activity score: 3
[1]; 20 μg/ml, 24 h
  Fluke activity score: 0.25
[1]; 20 μg/ml, 48 h
  Fluke activity score: 0
[1]; 20 μg/ml, 72 h
  Fluke activity score: 0
Adult F. hepatica [2]; 72 h
  minimal effective concentration: 2.5 µg/mL

## FC(F)(F)C(F)(F)C(F)(F)c1nc2cc(Cl)c(Oc3cccc(Cl)c3Cl)cc2[nH]1 [Compound 140, 6-chloro-5-(2,3-dichlorophenoxy)-2-heptafluoropropylbenzimidazole]
[1]; 20 μg/ml, 0 h
  Fluke activity score: 3
[1]; 20 μg/ml, 24 h
  Fluke activity score: 0.5
[1]; 20 μg/ml, 48 h
  Fluke activity score: 0
[1]; 20 μg/ml, 72 h
  Fluke activity score: 0
Adult F. hepatica [2]; 72 h
  minimal effective concentration: 5 µg/mL

## FC(F)(F)C(F)(F)C(F)(F)c1nc2cc(Cl)c(Oc3ccc(Cl)cc3Cl)cc2[nH]1 [Compound 273, 5-chloro-6-(2,4-dichlorophenoxy)-2-(heptafluoropropyl)-1H-1,3-benzodiazole]
Adult F. hepatica [3]
  No. of rats cured/No. of rats investigated: 1/2
  Number of living worms Ø = average: 1.5
  Worm burden reduction %: 76.2%
[1]; 10 μg/ml, 0 h
  Fluke activity score: 3
[1]; 10 μg/ml, 24 h
  Fluke activity score: 0
[1]; 10 μg/ml, 48 h
  Fluke activity score: 0
[1]; 10 μg/ml, 72 h
  Fluke activity score: 0
[1]; 20 μg/ml, 0 h
  Fluke activity score: 3
[1]; 20 μg/ml, 24 h
  Fluke activity score: 0
[1]; 20 μg/ml, 48 h
  Fluke activity score: 0
[1]; 20 μg/ml, 72 h
  Fluke activity score: 0
[1]; even at 10 μg/ml, compared with #114, #130, #140 and 50 μg/ml triclabendazole/sulfoxide
  Efficacy against triclabendazole-resistant flukes, in words: particularly efficacious
Adult F. hepatica [2]; 72 h
  minimal effective concentration: 5 µg/mL

## FC(F)(F)C(F)(F)C(F)(F)c1nc2cc(Cl)c(-c3ccc(Cl)cc3)cc2[nH]1 [Compound 274, 5-chloro-6-(4-chlorophenyl)-2-(heptafluoropropyl)-1H-1,3-benzodiazole]
Adult F. hepatica [3]
  No. of rats cured/No. of rats investigated: 1/3
  Number of living worms Ø = average: 2.3
Adult F. hepatica [2]; 72 h
  minimal effective concentration: 5 µg/mL

## Fc1ccc(-c2cc3[nH]c(C(F)(F)C(F)(F)C(F)(F)F)nc3cc2Cl)cc1 [Compound 282, 5-chloro-6-(4-fluorophenyl)-2-(heptafluoropropyl)-1H-1,3-benzodiazole]
Adult F. hepatica [3]
  No. of rats cured/No. of rats investigated: 2/3
  Number of living worms Ø = average: 2
Adult F. hepatica [2]; 72 h
  minimal effective concentration: < 2.5 µg/mL

## FC(F)(F)c1ccc(-c2cc3[nH]c(C(F)(F)C(F)(F)C(F)(F)F)nc3cc2Cl)cc1 [Compound 290, 5-chloro-2-(heptafluoropropyl)-6-[4-(trifluoromethyl)phenyl]-1H-1,3-benzodiazole]
Adult F. hepatica [3]
  No. of rats cured/No. of rats investigated: 1/3
  Number of living worms Ø = average: 3.3
  Worm burden reduction %: 47.6%
Adult F. hepatica [2]; [4]
  minimal effective concentration: 50 µg/mL

## FC(F)(F)c1ccc(-c2cc3[nH]c(C(F)(F)C(F)(F)C(F)(F)F)nc3cc2Cl)c(C(F)(F)F)c1 [Compound 303, 6-[2,4-bis(trifluoromethyl)phenyl]-5-chloro-2-(heptafluoropropyl)-1H-1,3-benzodiazole]
Adult F. hepatica [3]
  No. of rats cured/No. of rats investigated: 1/3
  Number of living worms Ø = average: 1.3
  Worm burden reduction %: 79.4%
Adult F. hepatica [2]; [4]
  minimal effective concentration: 20 µg/mL

## FC(F)(F)c1cc(Cl)ccc1-c1cc2[nH]c(C(F)(F)C(F)(F)C(F)(F)F)nc2cc1Cl [Compound 306, 5-chloro-6-[4-chloro-2-(trifluoromethyl)phenyl]-2-(heptafluoropropyl)-1H-1,3-benzodiazole]
Adult F. hepatica [2]; [4]
  minimal effective concentration: 20 µg/mL

## FC(F)(F)c1ccc(-c2cc3[nH]c(C(F)(F)F)nc3cc2Cl)c(Cl)c1 [Compound 307, 5-chloro-6-[2-chloro-4-(trifluoromethyl)phenyl]-2-(trifluoromethyl)-1H-1,3-benzodiazole]
Adult F. hepatica [2]; [4]
  minimal effective concentration: < 2.5 µg/mL

## FC(F)(F)c1ccc(-c2cc3[nH]c(C(F)(F)C(F)(F)F)nc3cc2Cl)c(Cl)c1 [Compound 308, 5-chloro-6-[2-chloro-4-(trifluoromethyl)phenyl]-2-(pentafluoroethyl)-1H-1,3-benzodiazole]
Adult F. hepatica [2]; [4]
  minimal effective concentration: < 10 µg/mL

## FC(F)(F)c1ccc(-c2cc3[nH]c(C(F)(F)C(F)(F)C(F)(F)F)nc3cc2Cl)c(Cl)c1 [Compound 309, 5-chloro-6-[2-chloro-4-(trifluoromethyl)phenyl]-2-(heptafluoropropyl)-1H-1,3-benzodiazole]
Adult F. hepatica [2]; [4]
  minimal effective concentration: 20 µg/mL

## C[S+]([O-])c1nc2cc(Oc3cccc(Cl)c3Cl)c(Cl)cc2[nH]1 (stereo not drawn) [TBZ-SOX, triclabendazole/sulfoxide, reference compound]
[1]; 50 μg/ml, 0 h
  Fluke activity score: 3
[1]; 50 μg/ml, 24 h
  Fluke activity score: 3
[1]; 50 μg/ml, 48 h
  Fluke activity score: 2.5
[1]; 50 μg/ml, 72 h
  Fluke activity score: 2
